Source: ChEMBL document CHEMBL3991601, “The target landscape of clinical kinase drugs” (Science, 2017)
The source made the active and inactive calls. Rule as the data show it, for most assays here: actives have a measured Kd and inactives only a lower limit.

Columns and labels:
[1] = biological target: T1, Serine/threonine-protein kinase Nek1 (Homo sapiens, UniProt Q96PY6)
T1 sequence (Q96PY6 whole entry): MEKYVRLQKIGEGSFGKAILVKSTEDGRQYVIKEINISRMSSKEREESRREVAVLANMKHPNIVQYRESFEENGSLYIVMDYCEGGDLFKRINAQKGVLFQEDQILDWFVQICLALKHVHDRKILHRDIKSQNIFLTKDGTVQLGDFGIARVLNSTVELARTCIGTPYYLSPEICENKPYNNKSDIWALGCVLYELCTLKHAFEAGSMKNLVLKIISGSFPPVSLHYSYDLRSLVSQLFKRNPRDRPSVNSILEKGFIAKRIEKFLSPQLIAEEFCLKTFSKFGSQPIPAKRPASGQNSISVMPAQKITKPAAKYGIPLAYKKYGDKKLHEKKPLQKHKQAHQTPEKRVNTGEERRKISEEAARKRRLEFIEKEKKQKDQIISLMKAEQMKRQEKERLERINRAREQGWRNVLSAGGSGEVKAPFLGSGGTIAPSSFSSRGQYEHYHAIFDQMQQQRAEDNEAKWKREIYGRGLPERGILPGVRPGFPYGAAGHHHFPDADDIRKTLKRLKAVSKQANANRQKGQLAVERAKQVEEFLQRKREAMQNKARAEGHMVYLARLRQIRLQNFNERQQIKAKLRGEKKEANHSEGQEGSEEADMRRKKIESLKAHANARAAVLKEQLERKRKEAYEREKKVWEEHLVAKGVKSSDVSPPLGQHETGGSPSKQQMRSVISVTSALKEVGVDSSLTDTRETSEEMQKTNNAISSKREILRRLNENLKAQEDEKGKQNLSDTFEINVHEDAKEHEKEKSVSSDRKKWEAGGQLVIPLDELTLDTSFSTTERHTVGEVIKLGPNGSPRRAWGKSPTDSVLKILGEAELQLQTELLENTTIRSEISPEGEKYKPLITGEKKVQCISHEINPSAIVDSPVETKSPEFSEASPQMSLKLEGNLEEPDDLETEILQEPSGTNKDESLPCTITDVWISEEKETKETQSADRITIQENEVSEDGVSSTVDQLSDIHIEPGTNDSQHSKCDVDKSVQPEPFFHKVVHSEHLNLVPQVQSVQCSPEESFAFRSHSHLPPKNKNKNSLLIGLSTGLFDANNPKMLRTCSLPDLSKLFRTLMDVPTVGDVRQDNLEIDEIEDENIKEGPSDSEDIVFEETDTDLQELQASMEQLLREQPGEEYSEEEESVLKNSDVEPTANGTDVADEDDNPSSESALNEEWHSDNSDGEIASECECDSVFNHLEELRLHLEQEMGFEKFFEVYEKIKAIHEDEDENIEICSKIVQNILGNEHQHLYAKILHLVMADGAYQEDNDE

Rab-like protein 3 = biological target: T2, Rab-like protein 3 (Homo sapiens, UniProt Q5HYI8)
T2 sequence (Q5HYI8 whole entry): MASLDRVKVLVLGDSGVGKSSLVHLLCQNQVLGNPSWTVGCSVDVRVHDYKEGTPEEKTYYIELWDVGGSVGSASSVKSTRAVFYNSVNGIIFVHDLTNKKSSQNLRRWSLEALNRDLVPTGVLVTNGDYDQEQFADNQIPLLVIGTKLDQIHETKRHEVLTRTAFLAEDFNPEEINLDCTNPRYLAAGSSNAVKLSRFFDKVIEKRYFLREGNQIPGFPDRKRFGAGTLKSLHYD

[2] = biological target: T3, General transcription and DNA repair factor IIH helicase subunit XPD (Homo sapiens, UniProt P18074); settings: read-out: Kd apparent; k-562, colo 205, sk-n-be(2) and mv-4-11
T3 sequence (P18074 whole entry): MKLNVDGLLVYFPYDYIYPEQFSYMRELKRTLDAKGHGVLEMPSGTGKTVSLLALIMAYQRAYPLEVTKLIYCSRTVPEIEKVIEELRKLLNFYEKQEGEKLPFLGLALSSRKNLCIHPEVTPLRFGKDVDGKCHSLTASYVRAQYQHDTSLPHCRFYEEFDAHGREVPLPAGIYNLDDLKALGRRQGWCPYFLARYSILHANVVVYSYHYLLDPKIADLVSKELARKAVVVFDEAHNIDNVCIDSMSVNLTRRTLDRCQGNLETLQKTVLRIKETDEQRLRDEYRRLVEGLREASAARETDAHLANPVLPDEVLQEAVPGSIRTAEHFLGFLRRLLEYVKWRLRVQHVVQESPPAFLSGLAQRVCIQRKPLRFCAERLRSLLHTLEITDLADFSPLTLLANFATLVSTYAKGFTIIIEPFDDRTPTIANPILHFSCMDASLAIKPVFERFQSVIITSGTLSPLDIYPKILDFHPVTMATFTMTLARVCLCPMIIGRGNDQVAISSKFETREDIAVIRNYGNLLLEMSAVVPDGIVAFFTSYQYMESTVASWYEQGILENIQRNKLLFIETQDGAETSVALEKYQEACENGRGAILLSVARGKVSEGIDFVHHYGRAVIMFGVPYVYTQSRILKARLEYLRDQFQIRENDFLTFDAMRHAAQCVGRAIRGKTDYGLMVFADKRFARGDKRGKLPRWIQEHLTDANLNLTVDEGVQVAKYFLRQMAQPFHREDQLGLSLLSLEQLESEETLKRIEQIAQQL

[3] = biological target: Serine/threonine-protein kinase/endoribonuclease IRE1 (Homo sapiens, UniProt O75460)
[4] = biological target: T4, Serine/threonine-protein kinase Chk1 (Homo sapiens, UniProt O14757)
T4 sequence (O14757 whole entry): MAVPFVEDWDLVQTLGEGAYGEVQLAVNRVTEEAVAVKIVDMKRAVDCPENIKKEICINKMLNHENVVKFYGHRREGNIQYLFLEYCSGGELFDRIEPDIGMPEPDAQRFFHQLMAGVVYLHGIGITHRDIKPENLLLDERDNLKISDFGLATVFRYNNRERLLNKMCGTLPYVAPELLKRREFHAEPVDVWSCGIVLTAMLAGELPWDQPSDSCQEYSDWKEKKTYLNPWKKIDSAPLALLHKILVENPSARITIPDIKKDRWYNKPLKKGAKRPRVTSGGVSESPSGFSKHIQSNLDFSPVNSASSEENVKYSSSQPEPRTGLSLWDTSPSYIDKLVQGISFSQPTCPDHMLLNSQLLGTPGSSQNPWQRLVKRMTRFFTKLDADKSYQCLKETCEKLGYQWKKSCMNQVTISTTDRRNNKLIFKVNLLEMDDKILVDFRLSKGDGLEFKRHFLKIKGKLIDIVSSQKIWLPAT

[5] = biological target: Casein kinase I isoform delta (Homo sapiens, UniProt P48730)
[6] = biological target: AP2-associated protein kinase 1 (Homo sapiens, UniProt Q2M2I8)
Also: in the data inactive means no Kd found up to 30 µM.

Chain of Serine/threonine-protein kinase/endoribonuclease IRE1 (O75460 whole entry): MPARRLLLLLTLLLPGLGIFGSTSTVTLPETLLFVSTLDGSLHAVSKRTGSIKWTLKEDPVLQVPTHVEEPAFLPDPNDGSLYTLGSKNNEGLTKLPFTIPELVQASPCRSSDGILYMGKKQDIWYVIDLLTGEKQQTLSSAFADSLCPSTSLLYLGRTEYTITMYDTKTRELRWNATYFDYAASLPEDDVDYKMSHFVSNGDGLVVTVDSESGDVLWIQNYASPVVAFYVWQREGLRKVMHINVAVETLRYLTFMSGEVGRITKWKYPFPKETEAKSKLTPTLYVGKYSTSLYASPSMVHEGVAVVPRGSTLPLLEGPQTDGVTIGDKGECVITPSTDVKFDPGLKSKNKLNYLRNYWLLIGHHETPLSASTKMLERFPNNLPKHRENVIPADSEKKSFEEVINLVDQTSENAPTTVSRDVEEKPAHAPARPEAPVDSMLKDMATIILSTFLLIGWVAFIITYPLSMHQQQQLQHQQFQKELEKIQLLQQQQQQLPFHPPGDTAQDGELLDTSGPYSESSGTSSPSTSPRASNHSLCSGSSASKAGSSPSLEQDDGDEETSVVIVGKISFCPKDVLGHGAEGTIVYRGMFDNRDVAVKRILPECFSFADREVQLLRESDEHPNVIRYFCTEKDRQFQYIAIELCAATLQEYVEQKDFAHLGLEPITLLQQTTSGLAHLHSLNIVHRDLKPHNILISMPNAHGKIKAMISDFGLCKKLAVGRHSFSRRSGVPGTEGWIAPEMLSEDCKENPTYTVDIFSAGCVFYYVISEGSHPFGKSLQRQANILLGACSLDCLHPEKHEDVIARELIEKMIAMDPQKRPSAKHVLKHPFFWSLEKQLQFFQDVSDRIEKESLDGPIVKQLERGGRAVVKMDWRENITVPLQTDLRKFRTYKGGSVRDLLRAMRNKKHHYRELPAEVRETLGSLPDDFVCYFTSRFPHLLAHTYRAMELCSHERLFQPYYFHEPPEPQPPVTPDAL
Chain of Casein kinase I isoform delta (P48730 whole entry, canonical isoform): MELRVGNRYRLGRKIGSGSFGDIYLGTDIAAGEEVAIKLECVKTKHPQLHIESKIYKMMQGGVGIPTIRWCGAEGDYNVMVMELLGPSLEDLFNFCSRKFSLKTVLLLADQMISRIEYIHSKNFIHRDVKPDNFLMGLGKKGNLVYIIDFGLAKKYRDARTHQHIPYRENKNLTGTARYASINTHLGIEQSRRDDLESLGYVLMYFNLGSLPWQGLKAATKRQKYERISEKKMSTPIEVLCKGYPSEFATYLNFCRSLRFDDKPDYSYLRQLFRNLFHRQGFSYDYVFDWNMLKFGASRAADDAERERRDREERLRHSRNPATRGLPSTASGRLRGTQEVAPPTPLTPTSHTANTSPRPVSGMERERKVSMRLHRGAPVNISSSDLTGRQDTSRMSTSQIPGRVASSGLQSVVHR
Chain of AP2-associated protein kinase 1 (Q2M2I8 whole entry): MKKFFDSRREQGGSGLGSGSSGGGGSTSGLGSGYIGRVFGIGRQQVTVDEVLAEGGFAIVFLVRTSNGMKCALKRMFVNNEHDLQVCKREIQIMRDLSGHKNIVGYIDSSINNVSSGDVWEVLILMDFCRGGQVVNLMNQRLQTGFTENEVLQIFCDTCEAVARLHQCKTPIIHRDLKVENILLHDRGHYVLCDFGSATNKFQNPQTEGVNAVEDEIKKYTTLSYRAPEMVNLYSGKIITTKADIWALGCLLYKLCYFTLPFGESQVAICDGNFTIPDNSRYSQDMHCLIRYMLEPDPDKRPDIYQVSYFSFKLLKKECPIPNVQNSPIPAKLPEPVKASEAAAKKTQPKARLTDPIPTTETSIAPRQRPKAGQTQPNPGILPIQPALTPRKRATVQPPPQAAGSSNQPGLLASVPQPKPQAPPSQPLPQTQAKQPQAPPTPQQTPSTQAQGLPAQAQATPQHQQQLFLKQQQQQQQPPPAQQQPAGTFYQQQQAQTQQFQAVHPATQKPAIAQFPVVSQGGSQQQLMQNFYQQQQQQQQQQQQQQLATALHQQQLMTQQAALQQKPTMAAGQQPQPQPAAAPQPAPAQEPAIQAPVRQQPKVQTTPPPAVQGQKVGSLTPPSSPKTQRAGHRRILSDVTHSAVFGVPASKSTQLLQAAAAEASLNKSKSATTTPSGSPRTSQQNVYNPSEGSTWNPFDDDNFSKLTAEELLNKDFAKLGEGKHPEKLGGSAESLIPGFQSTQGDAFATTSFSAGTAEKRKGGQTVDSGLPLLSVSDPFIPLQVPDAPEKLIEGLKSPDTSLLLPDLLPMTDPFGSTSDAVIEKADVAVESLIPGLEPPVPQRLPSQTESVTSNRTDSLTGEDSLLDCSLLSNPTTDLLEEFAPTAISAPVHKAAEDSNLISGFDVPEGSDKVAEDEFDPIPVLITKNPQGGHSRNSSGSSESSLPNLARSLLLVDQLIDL

Structure (SMILES) | Kd [1] | Kd (Rab-like protein 3) | Kd [2] | Kd [3] | Kd [4] | Kd [5] | Kd [6]
C[C@@H](Oc1cc(C(=O)Nc2ccc(C(=O)N3CCN(C)CC3)cc2)nnc1N)c1c(Cl)ccc(F)c1Cl | > 30 µM (inactive) | > 30 µM (inactive) | > 30 µM (inactive) | > 30 µM (inactive) | > 30 µM (inactive) | > 30 µM (inactive) | 22.2 µM (active)
C[C@H]1CNCCCN1S(=O)(=O)c1cccc2cncc(F)c12 | > 30 µM (inactive) | > 30 µM (inactive) | > 30 µM (inactive) | > 30 µM (inactive) | > 30 µM (inactive) | > 30 µM (inactive) | > 30 µM (inactive)
CCNC(=O)C#Cc1ccc2c(c1)NC(=O)/C2=C(\Nc1ccc(CN(C)C)cc1)c1ccccc1 | > 30 µM (inactive) | > 30 µM (inactive) | > 30 µM (inactive) | > 30 µM (inactive) | > 30 µM (inactive) | > 30 µM (inactive) | > 30 µM (inactive)
C=CC(=O)N1CCC[C@H](n2c(=O)n(-c3ccc(Oc4ccccc4)cc3)c3c(N)ncnc32)C1 | > 30 µM (inactive) | > 30 µM (inactive) | > 30 µM (inactive) | > 30 µM (inactive) | > 30 µM (inactive) | > 30 µM (inactive) | > 30 µM (inactive)
Cc1nc2cc(-c3nn(C(C)C)c4ncnc(N)c34)ccc2o1 | > 30 µM (inactive) | > 30 µM (inactive) | > 30 µM (inactive) | > 30 µM (inactive) | > 30 µM (inactive) | 0.152 µM (active) | > 30 µM (inactive)
COCc1c(-c2ccc(NC(=O)Nc3cc(C(F)(F)F)ccc3F)c(F)c2)c2c(N)ncnn2c1CN1CCOCC1 | > 30 µM (inactive) | > 30 µM (inactive) | > 30 µM (inactive) | > 30 µM (inactive) | > 30 µM (inactive) | > 30 µM (inactive) | > 30 µM (inactive)
Nc1ncnc2c1c(-c1cccc(OCc3ccccc3)c1)cn2[C@H]1C[C@@H](CN2CCC2)C1 [AEW-541] | > 30 µM (inactive) | > 30 µM (inactive) | > 30 µM (inactive) | > 30 µM (inactive) | > 30 µM (inactive) | > 30 µM (inactive) | > 30 µM (inactive)
Cc1csc(-c2nnc(Nc3ccc(Oc4ncccc4-c4ccnc(N)n4)cc3)c3ccccc23)c1 [AMG-900] | 2.38 µM (active) | > 30 µM (inactive) | > 30 µM (inactive) | > 30 µM (inactive) | > 30 µM (inactive) | > 30 µM (inactive) | > 30 µM (inactive)
O=C(Nc1c[nH]nc1-c1nc2cc(CN3CCOCC3)ccc2[nH]1)NC1CC1 [AT-9283] | > 30 µM (inactive) | > 30 µM (inactive) | > 30 µM (inactive) | > 30 µM (inactive) | 0.084 µM (active) | > 30 µM (inactive) | 0.017 µM (active)
COc1c(OCCCN2CCOCC2)ccc2c1N=C(NC(=O)c1cnc(N)nc1)N1CCN=C21 [COPANLISIB] | > 30 µM (inactive) | > 30 µM (inactive) | – | > 30 µM (inactive) | > 30 µM (inactive) | > 30 µM (inactive) | > 30 µM (inactive)
O=C(Nc1nc2cccc(-c3ccc(CN4CCS(=O)(=O)CC4)cc3)n2n1)C1CC1 [FILGOTINIB] | > 30 µM (inactive) | > 30 µM (inactive) | – | > 30 µM (inactive) | > 30 µM (inactive) | > 30 µM (inactive) | 4.99 µM (active)
CNC(=O)c1nn(C)c2c1C(C)(C)Cc1cnc(Nc3ccc(N4CCN(C)CC4)cc3)nc1-2 [MILCICLIB] | > 30 µM (inactive) | > 30 µM (inactive) | – | > 30 µM (inactive) | > 30 µM (inactive) | 0.236 µM (active) | 7.41 µM (active)
CCS(=O)(=O)c1cccc(-c2cc(C(=O)NC3CCN(C)CC3)c(C)c3[nH]c4ncc(C)cc4c23)c1 [TAK-901] | > 30 µM (inactive) | > 30 µM (inactive) | – | > 30 µM (inactive) | 1.75 µM (active) | > 30 µM (inactive) | > 30 µM (inactive)
